Assay results as given in publication PMC1082716, “Blockade of chemokine-induced signalling inhibits CCR5-dependent HIV infection in vitro without blocking gp120/CCR5 interaction” (Retrovirology, 2005).
Entries after “also recorded” stand apart in the source; their conditions may differ.

Assays:
[1] = tested on: SDF-1α induced chemotaxis; assay: SDF-1α induced chemotaxis (ChemoTx transwell); type: cell-based; details: 100 ng/ml SDF1α; various concentrations of inhibitor in both compartments; 5 × 10^4 cells per well; 2 h, 37°C; MTT; triplicate
Procedure: Figure 2 Effect of Peptide 3 on gp120:V3 loop peptide binding to cells. (a) The binding of 100 μM N-terminal biotinylated gp120:V3(IIIb) to THP-1 cells was measured in the presence of various concentrations of peptide 3. […] (b) Chemotaxis in response to 100 ng/ml SDF1α was measured in the presence of various concentrations of peptide 3. […] (e) As for (a) except that the effect of Peptide 3 on the binding of gp120:V3(BaL) to THP-1 cells was determined. (f) As for (b) except that the effect of Peptide 3 on chemotaxis induced by 25 ng/ml MIP1α was determined. All binding reactions were performed with 10^6 cells in 100 μl of binding medium at 4°C. Chemotaxis assays were performed with 5 × 10^4 cells per well. Values are mean ± SEM of triplicate determinations.
Chemotaxis experiments were performed essentially as previously described, using the ChemoTx disposable 96-well transwell migration plates, with PVP-free membrane (6 μm pore size). Chemoattractant (lower compartment) and cells upper compartment) were suspended in Gey's Balanced salt solution + 1 mg/ml BSA. […] Migration was allowed to proceed for 2 hours at 37°C. […] Each condition was determined in triplicate, and the number of cells migrating in the absence of chemoattractant was subtracted to determine the chemokine-dependent chemotaxis which was reported.

HIV (IIIb) [2] = assay: HIV (IIIb) infection of Jurkat T-cells, p24gag immunofluorescence; type: cell-based; details: Peptide 3 100 μM, approximately 48 h after infection
Procedure: HIV infection of Jurkat T-cells was also monitored by high sensitivity quantitative immunofluoresence detection of viral p24^gag expression. Jurkat cells were infected with HIV in the presence or absence of Peptide 3 (100 μM) or SDF1α (100 ng/ml) as described above. Approximately 48 h after infection, the cells were attached to glass slides using a cytospin and then fixed by immersion in ice-cold 70% ethanol for 90 seconds. Expression of p24^gag was determined using quantitative immunofluoresence as previously described, except that the primary antibody was post-fixed to the section using paraformaldehyde to increase the sensitivity of the technique (see Methods). Viral infectivity was expressed as the number of cells stained for p24^gag expressed as a proportion of the total number of cells (detected using Hoechst 33342 nuclear dye). […]
Jurkat cells following HIV infection were attached to 8-well chamber slides (Becton-Dickinson) by spinning the slides using a plate rotor in a Labofuge centrifuge (Heraeus) at 3,000 × g for 5 minutes. […] A threshold was then applied to each image which was the lowest threhold that detected <1% of the pixels of an image of uninfected cells stained under identical conditions. The number of objects exceeding this threshold in each field of view were counted. […]

[3] = tested on: chemokine receptor internalisation; details: ref [27]; cited from earlier work
Source text: Since BSCIs, such as Peptide 3, ...

HIV (IIIb) [4] = assay: HIV (IIIb) replication in Jurkat T-cells, supernatant reverse transcriptase activity; type: cell-based; details: HIV-1 IIIb 10^6 TCID50; Peptide 3 100 μM; two weeks; six separate experiments
Procedure: HIV infection of Jurkat T-cells using the laboratory-adapted T-tropic isolate IIIb was monitored using two different assays. Firstly, Jurkat T-cells in 96-well plates were pre-treated with either Peptide 3, vehicle (as a negative control) or SDF1α (as a positive control) for 4 hours, then exposed to HIV virus (10^6 TCID50) and pulsed at 2–3 day intervals with Peptide 3, SDF1α or medium alone as appropriate. After two weeks in culture, the extent of viral infection was assayed by measuring the reverse transcriptase activity in the supernatant, as a measure of viral replication in the culture In six separate experiments, Peptide 3 (100 μM) had no effect on virus replication following HIV exposure (Fig 3a), while SDF1α inhibited reverse transcriptase activity by an average of 75%. No effect was seen on cell viability under any of the treatment conditions.
HIV-1 stocks were prepared in the following manner. HIV-1 IIIb (provided by the MRC AIDS Reagent Programme) was used to infect Jurkat T cells and the progression of infection was monitored using the reverse transcriptase assay for 10–14 days. […] Stocks of HIV-1 MN strain were prepared in a similar manner, except that H9 T cells were used and the progression of infection was monitored by immunofluoresence (because of the low RT activity) in this strain. […]

## EICADPKQKWVQ [Peptide 3]
[1]
  Effect on SDF-1α induced chemotaxis: powerfully inhibited; also recorded: efficiently blocks
HIV (IIIb) [2]
  Effect on viral infectivity (p24gag, in words): no effect
[3]
  Effect on chemokine receptor internalisation induced by ligand binding: do not block
HIV (IIIb) [4]
  Effect on virus replication following HIV exposure (reverse transcriptase activity): no effect
